Test: Stability of polymorphs: slurry of Form 1, Form 2 and Form 3 in ethanol, crystal form examined by powder X-ray diffraction
Format: physicochemical
Description: Powder X-ray diffraction analysis of solid material was carried out using the Briker D8 powder diffractometer. Samples were mounted in Perspex sample holders and the samples flattened. The sample holder was rotated and X-rays were collected from 4° to 34° 2-theta, with a scan time of 25 to 30 minutes depending on the pattern intensity. Approximately 0.1 g each of Form 1, Form 2 and Form 3 were added to 10 ml of ethanol at 50° C. and 60° C. until there were solids out of solution (a slurry). The temperature was maintained with stirring and the crystal form examined after 2 and 8 days.

[1] = about 0.1 g each of Form 1, Form 2 and Form 3 in 10 ml ethanol, stirred slurry at 50° C. and 60° C.

CNC(=O)Nc1ccc(S(=O)(=O)NC(=O)c2ccccc2OC)cc1 [Form 2, N-(2-methoxybenzoyl)-4-[(methylaminocarbonyl)amino]benzenesulfonamide]
crystal form present in slurry after 8 days (about 0.1 g each of Form 1, Form 2 and Form 3 in 10 ml ethanol, stirred slurry at 50° C. and 60° C., 8 days in total): complete conversion to Form 2
crystal form present in slurry after 2 days [1]: still present
stability relative to the other polymorphs (general statement in the description, Form 2 compared with Form 1 and Form 3): stable polymorph

CNC(=O)Nc1ccc(S(=O)(=O)NC(=O)c2ccccc2OC)cc1 [Form 3, N-(2-methoxybenzoyl)-4-[(methylaminocarbonyl)amino]benzenesulfonamide]
crystal form present in slurry after 2 days [1]: still present

CNC(=O)Nc1ccc(S(=O)(=O)NC(=O)c2ccccc2OC)cc1 [Form 1, N-(2-methoxybenzoyl)-4-[(methylaminocarbonyl)amino]benzenesulfonamide]
crystal form present in slurry after 2 days [1]: no evidence of Form 1
